# In patent US20050095219A1, “Compositions for promoting vaginal cell proliferation and maturation” (priority 2003, published 2005):
# Tests used:
# [1] = tested on: Primary vaginal epithelial cells; experiment: Glycogen production, periodic acid Schiff (PAS) assay; format: cell-based, human; conditions: 0.1 mg/mL, 5 days treatment, p<0.05 vs control
# Method: Primary vaginal epithelial cells were cultured in 96-well plates. Five samples were tested for each group. Treatment was for 5 days with culture medium solutions (PrEBM, Clonetics CC-3165) without (the control group) and with 0.1 mg/mL hyaluronic acid (Sigma H-1751). The media were changed every other day. At the end the treatment, the media was removed, and the well was washed twice with HBSS.
# Glycogen tests were performed using a periodic acid Schiff (PAS) assay as described below. Before the test, cells were fixed with a 10 vol % Formalin/ethanol solution for 1 hour at room temperature, followed by continuous rinsing with deionized (DI) water for 1 minute. Harleco® PAS Aassay Kit (from EM Science 64945/43) was used for glycogen detection. The basic principle is that the hydroxy groups on the glycogen units were first oxidized into aldehyde groups by periodic acid, and the aldehyde groups reacted with Schiff's agent to produce a red colorant. The specific assay operations were all done at room temperature as follows: • 1. Periodic acid reagent was added to the well/chamber and allowed to stand for 10 minutes). • 2. Samples were continuously rinsed in water for one minute. • 3. Schiff's reagent was added and allowed to stand for 15 minutes. • 4. […] The numbers of glycogen-stained positive cells were manually counted under microscope.
# [2] = tested on: E. coli with P family pili, ATCC 53505; experiment: E. coli adhesion test on A431 cells; format: cell-based
# Method: Cultured A431 cells were used as a model human epithelial cell line. A431 cells were obtained from American Cell Type Culture Collection, catalog # CRL-1555. A monolayer of A431 cells was grown on a 24-well tissue culture plate until confluent. E. coli with P family pili, ATCC 53505, were cultured in trypticase soy broth (TSB) overnight. Phosphate buffered saline (PBS, control) or hyaluronic acid (Sigma, catalog # H1876) solutions at a concentration of 1 mg/ml or 5 mg/ml in PBS were added to the A431 cell layers, using a volume of 1.2 ml/well. For comparison, a control plate was set up and treated identically as the test plate, except that the wells in the control plate were given PBS without hyaluronic acid. After incubation for 30 minutes at 37° C., 0.5 ml of solution was removed from the wells and 0.5 ml of the bacteria suspension was added. […] After 60 minutes, the supernatant in each well was removed and the wells were rinsed thoroughly with PBS to remove all non-bound bacteria. Trypticase soy broth was then added to wells, and the system was incubated at 37° C. with shaking at 100 rpm/min for 2 hours. Bacterial concentration was measured by the detection of optical density of bacterial suspension at 540 nm.
# (§1) All the data are expressed as mean ± SEM and were analyzed by one-way Analysis of Variance (ANOVA) followed by a Tukey-Kramer Multiple Comparisons Test. […]
# E. coli, ATCC 53505 = experiment: Effect on E. coli growth (optical density at 540 nm); format: cell-based; conditions: 1 mg/ml or 5 mg/ml, 1, 2 and 3 hours
# Method: To test whether hyaluronic acid could influence cellular growth, E. coli, ATCC 53505 cells were cultured overnight in trypticase soy broth. The culture was then diluted to an optical density of 0.1 and hyaluronic acid (1 mg/ml or 5 mg/ml) in PBS was incubated with the E. coli suspension. A control comprising a suspension E. coli treated with PBS was also prepared. The test and control cells were incubated at 37° C. with shaking and the optical density of the bacterial suspensions at 540 nm was measured at 1, 2 and 3 hours after addition of the hyaluronic acid or PBS. All the data are expressed as mean ± SEM and were analyzed by one-way Analysis of Variance (ANOVA) followed by a Tukey-Kramer Multiple Comparisons Test. Differences were considered significant at the level of p<0.05.
# [3] = tested on: Candida albicans, ATCC 10231; experiment: Candida albicans attachment to A431 cells; format: cell-based
# Method: A culture of Candida albicans, ATCC 10231, was started in peptone/glucose culture medium and incubated at 37° C. with shaking for three days before the experiment. A monolayer of A431 cells, ATCC CRL-1555, was grown on a 24-well tissue culture plate until confluent. Hyaluronic acid at concentration of 1 mg/ml or 5 mg/ml in PBS was added to the wells (1.2 ml/well), and the plates were incubated for 30 minutes at 35° C. A control plate of confluent A431 cells was also prepared that received 1.2 ml/well PBS and no hyaluronic acid. After the 30 min incubation, 0.5 ml of solution was removed from the wells and 0.5 ml of yeast suspension (1×10^6 cfu/ml) was added. After 2 hours of incubation, the supernatant was removed from the wells and the wells were rinsed thoroughly with PBS to remove all non-bound yeast. Then, 0.2 ml of 0.25% trypsin/EDTA was added to each well and the plates were incubated at 35° C. for 15 min. Trypsinization was stopped by adding 1 ml of 10% fetal bovine serum in culture medium. The trypsinized cell/yeast suspension was centrifuged and re-suspended in 1 ml of the medium. […] The number of colonies on each plate was counted and the number of yeast attached to the cells in each well was calculated.
# as §1
# [4] = tested on: Normal human vaginal epithelial cells (NHVE 5164); experiment: Vaginal cell proliferation (CellTiter 96 Aqueous One Solution); format: cell-based; conditions: complete medium, 72 hours
# Method: Normal human vaginal epithelial cells from Clonetics (NHVE 5164) were subcultured into 96 well plates at 37° C., 5% CO2. Cells were cultured with basal PrEBM (Clonetics CC 3165) supplemented with cell growth medium bulletKit (Clonetics, cc-3166). Cells were treated with HLA having different molecular weights (MW), HLA1 (Sigma #H1751, intrinsic viscosity=100), HLA2 (MW, 150-500 k, Carbomer #8-01250) and HLA3 (a disaccharide, MW 405, Sigma #H9649). HLA was dissolved in either basal culture medium or basal medium supplemented with growth factors (complete medium) at concentration of 100, 10 or 1 μg/ml. Control group cells were treated with culture medium only. Each treatment group included 6 samples. The media for the different samples were changed 48 hours later and cell proliferation was examined at 72 hours by using CellTiter 96 Aqueous One Solution from Promega (#TB245). Twenty μl of the reagent was added to each well. The plates were returned to cell culture incubator for 3 hours. The absorbance in each well was measured at 490 nm with a microtiter reader.
substance,measurement,setting,value
hyaluronic acid,glycogen production (numbers of glycogen-stained positive cells),[1],increase in glycogen production was statistically significant
same,number of E. coli attached to A431 cells,[2]; 1 mg/ml in PBS,lesser effect on E. coli adhesion
same,number of E. coli attached to A431 cells,[2]; 5 mg/ml in PBS,significantly inhibited
same,E. coli growth,"E. coli, ATCC 53505",neither of the hyaluronic acid solutions had any effect on bacterial growth
same,number of Candida albicans adhering to A431 cells,[3]; 1 mg/ml in PBS,the effect was not so significant
same,number of Candida albicans adhering to A431 cells,[3]; 5 mg/ml in PBS,significantly inhibited
hyaluronic acid [HLA1],vaginal cell proliferation compared to control group,[4]; 100 μg/ml,significantly promoted vaginal cell proliferation
same,vaginal cell proliferation compared to control group,[4]; low concentrations 10 and 1 μg/ml,no significant effect on cell proliferation
hyaluronic acid [HLA2],vaginal cell proliferation compared to control group,"[4]; any of the three concentrations tested (100, 10, 1 μg/ml)",no statistically significant effect
